This experiment has as its target BRAF^V600E protein (Homo sapiens, UniProt P15056, V600E). Kind of experiment: HiBiT cellular BRAF V600E degradation assay. It counts as cell-based. The following applies: 24 h incubation; for DC50: A375.10 cells (HiBiT tag knocked in at N-terminal of BRAF V600E), concentration at which 50% of total cellular BRAF V600E is degraded; for Emax / HiBit 24 h Emax: A375.10 cells, Emax = amount of residual protein remaining in the cell after compound treatment; for Emax: read-out: HiBit 24 h Emax. The text has this:
DMEM no-phenol red medium supplemented with L-glutamine was purchased from (Corning). Fetal bovine serum (FBS) was purchased from Gibco (Grand Island, NY, USA). Nano-Glo® HiBiT Lytic Assay Buffer & Reagents were purchased from Promega (Madison, WI, USA). […] Cell culture flasks and 384-well black flat-bottom polystyrene TC-treated microplates were acquired from Corning (Corning, NY, USA).
HiBiT Cellular BRAFv^600E Degradation Assay
Prior to the assay, the A375.10 cell line is maintained in DMEM no-phenol red medium supplemented with 10% fetal bovine serum (FBS). […] Briefly, test compounds were added to the 384-well plate from a top concentration of 10 μM with 11 half log dilutions of compound, plated in duplicate. Then, 30 uL of a suspension of A375.10 cell lines was dispensed into columns 1-24 of the 384-well plates at a cell density of 7500 cells per well. The plates were kept at 37° C. with 5% CO2 for the duration of the assay (6 or 24 hr). After the desired incubation time with compound, 30 uL of Nano-Glo® HiBiT Lytic Buffer containing LgBiT protein (diluted 1:100) and luminescence substrate (diluted 1:50) were added to the cells in columns 1-23 of the assay plate. The plate was the incubated for 30 min on the bench at room temperature. Finally, HiBiT luminescence signal was acquired on EnVision™ Multilabel Reader (PerkinElmer, Santa Clara, CA, USA).
Quantification of luminescence responses measured in the presence of compound were normalized to a high signal/no degradation control (untreated cells+lytic detection reagent) and a low signal/full degradation control (untreated cells, no lytic detection reagent). Data were analyzed with a 4-parameter logistic fit to generate sigmoidal dose-response curves. […] The Emax, or maximum effect of each compound, represents the amount of residual protein remaining in the cell following compound treatment.

Counter-ions that a name gives are not always drawn.

Chain of BRAF^V600E protein (P15056 whole entry V600E): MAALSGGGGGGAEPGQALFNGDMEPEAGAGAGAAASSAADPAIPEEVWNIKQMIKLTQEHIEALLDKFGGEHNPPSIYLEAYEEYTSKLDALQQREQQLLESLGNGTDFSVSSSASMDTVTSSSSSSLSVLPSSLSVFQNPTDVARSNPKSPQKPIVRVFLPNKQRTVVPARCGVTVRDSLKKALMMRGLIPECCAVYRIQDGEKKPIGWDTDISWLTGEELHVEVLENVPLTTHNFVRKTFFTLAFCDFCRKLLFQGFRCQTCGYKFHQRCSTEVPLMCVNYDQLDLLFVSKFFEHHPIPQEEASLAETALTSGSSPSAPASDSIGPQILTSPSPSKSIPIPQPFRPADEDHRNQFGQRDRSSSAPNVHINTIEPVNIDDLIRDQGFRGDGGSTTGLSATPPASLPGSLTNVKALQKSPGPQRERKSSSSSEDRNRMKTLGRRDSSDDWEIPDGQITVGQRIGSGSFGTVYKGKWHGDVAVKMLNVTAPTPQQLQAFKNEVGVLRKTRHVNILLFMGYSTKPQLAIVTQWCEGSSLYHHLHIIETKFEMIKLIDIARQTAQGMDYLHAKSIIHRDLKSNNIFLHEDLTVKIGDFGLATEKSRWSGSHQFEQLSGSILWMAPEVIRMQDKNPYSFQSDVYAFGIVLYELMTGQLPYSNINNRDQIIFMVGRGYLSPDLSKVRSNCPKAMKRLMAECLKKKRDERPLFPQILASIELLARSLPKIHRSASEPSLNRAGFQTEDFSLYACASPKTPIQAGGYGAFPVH

What is called DC50 is the concentration at which degradation of the target reaches its halfway point. High values mean a less potent degrader, low ones a more potent degrader. The term Emax denotes the maximal effect, on the per cent scale that the assay sets. On to `CCN(C)S(=O)(=O)Nc1ccc(F)c(C(=O)c2c[nH]c3ncc(-c4ccc(OC5CCN(C(=O)CN6CCC(c7ccc(NC8CCC(=O)NC8=O)cc7)CC6)CC5)cc4)cc23)c1F` (stereo not shown) [Example A31, 5-[4-[1-[2-[4-[4-[(2,6-dioxopiperidin-3-yl)amino]phenyl]piperidin-1-yl]acetyl]piperidin-4-yl]oxyphenyl]-3-[3-[[ethyl(methyl)sulfamoyl]amino]-2,6-difluorobenzoyl]-1H-pyrrolo[2,3-b]pyridine], for which the DC50 stood at 15 nM and the Emax was found to be 12%.
`CCN(C)S(=O)(=O)Nc1ccc(F)c(C(=O)c2c[nH]c3ncc(-c4cnc(N5CCN(C(=O)CN6CCC(c7ccc(NC8CCC(=O)NC8=O)cc7)CC6)CC5)nc4)cc23)c1F` (stereo not shown) [Example 18, 5-[2-[4-[2-[4-[4-[(2,6-dioxo-3-piperidyl)amino]phenyl]-1-piperidyl]acetyl]piperazin-1-yl]pyrimidin-5-yl]-3-[3-[[ethyl(methyl)sulfamoyl]amino]-2,6-difluoro-benzoyl]-1H-pyrrolo[2,3-b]pyridine]: the DC50 worked out at 2.85 nM and the “HiBit 24 h Emax” value was found to be 7.93%.
As to `CC(C)S(=O)(=O)Nc1ccc(F)c(C(=O)c2c[nH]c3ncc(-c4ccc(N5CCN(C(=O)CN6CCC(c7ccc(C8CCC(=O)NC8=O)cc7F)CC6)CC5)nc4)cc23)c1F` (stereo not shown) [Example 15, N-[3-[5-[6-[4-[2-[4-[4-(2,6-dioxo-3-piperidyl)-2-fluoro-phenyl]-1-piperidyl]acetyl]piperazin-1-yl]-3-pyridyl]-1H-pyrrolo[2,3-b]pyridine-3-carbonyl]-2,4-difluoro-phenyl]propane-2-sulfonamide], the DC50 came out at 9.59 nM and the Emax is 2.65%.
On to `CCN(C)S(=O)(=O)Nc1ccc(F)c(C(=O)c2c[nH]c3ncc(-c4ccc(N5CCN(C(=O)CN6CCC(c7ccc(NC89CC(C8)C(=O)NC9=O)cc7)CC6)CC5)nc4)cc23)c1F` [Example A47, 5-[6-[4-[2-[4-[4-[(2,4-Dioxo-3-azabicyclo[3.1.1]heptan-1-yl)amino]phenyl]piperidin-1-yl]acetyl]piperazin-1-yl]pyridin-3-yl]-3-[3-[[ethyl(methyl)sulfamoyl]amino]-2,6-difluorobenzoyl]-1H-pyrrolo[2,3-b]pyridine], for which the DC50 turned out to be 3.86 nM and the Emax was found to be 10.7%.
`O=C1CCC(Nc2ccc(N3CCC(O)(CC(=O)N4CCN(c5ccc(-c6cnc7[nH]cc(C(=O)c8c(F)ccc(NS(=O)(=O)N9CC[C@@H](F)C9)c8F)c7c6)cn5)CC4)CC3)c(F)c2)C(=O)N1` (stereo partly drawn) [Example 190, (3R)—N-[3-[5-[6-[4-[2-[1-[4-[(2,6-dioxo-3-piperidyl)amino]-2-fluoro-phenyl]-4-hydroxy-4-piperidyl]acetyl]piperazin-1-yl]-3-pyridyl]-1H-pyrrolo[2,3-b]pyridine-3-carbonyl]-2,4-difluoro-phenyl]-3-fluoro-pyrrolidine-1-sulfonamide]: the DC50 was 2.72 nM and the maximal response (Emax) is 7.07%.
The corresponding values for `CCN(C)S(=O)(=O)Nc1ccc(F)c(C(=O)c2c[nH]c3ncc(-c4cnc(N5CCN(C(=O)CC6(O)CCN(c7ccc8c(N9CCC(=O)NC9=O)nn(C)c8c7)CC6)CC5)nc4)cc23)c1F` [Example 163, 3-(2,4-dioxohexahydropyrimidin-1-yl)-6-[4-[2-[4-[5-[3-[3-[[ethyl(methyl)sulfamoyl]amino]-2,6-difluoro-benzoyl]-1H-pyrrolo[2,3-b]pyridin-5-yl]pyrimidin-2-yl]piperazin-1-yl]-2-oxo-ethyl]-4-hydroxy-1-piperidyl]-1-methyl-indazole] are 4.52 nM and 9.67%.
The corresponding values for `CCN(C)S(=O)(=O)Nc1ccc(F)c(C(=O)c2c[nH]c3ncc(-c4ccn(C5CCN(C(=O)CC6(O)CCN(c7ccc(NC8CCC(=O)NC8=O)cc7F)CC6)CC5)c(=O)c4)cc23)c1F` (stereo not shown) [Example 181, 5-[1-[1-[2-[1-[4-[(2,6-dioxo-3-piperidyl)amino]-2-fluoro-phenyl]-4-hydroxy-4-piperidyl]acetyl]-4-piperidyl]-2-oxo-4-pyridyl]-3-[3-[[ethyl(methyl)sulfamoyl]amino]-2,6-difluoro-benzoyl]-1H-pyrrolo[2,3-b]pyridine] are 11.5 nM and 13.5%.
For `CCN(C)S(=O)(=O)Nc1ccc(F)c(C(=O)c2c[nH]c3ncc(-c4ccc(N5CCN(C(=O)CC6(O)CCN(c7ccc(NC8CCC(=O)NC8=O)cc7F)CC6)CC5)c(C(F)(F)F)c4)cc23)c1F` (stereo not shown) [Example 212, 5-[4-[4-[2-[1-[4-[(2,6-dioxo-3-piperidyl)amino]-2-fluoro-phenyl]-4-hydroxy-4-piperidyl]acetyl]piperazin-1-yl]-3-(trifluoromethyl)phenyl]-3-[3-[[ethyl(methyl)sulfamoyl]amino]-2,6-difluoro-benzoyl]-1H-pyrrolo[2,3-b]pyridine], half-maximal degradation (DC50) was put at 32.8 nM and the maximal effect (Emax) is 7.02%.
On to `CCN(C)S(=O)(=O)Nc1ccc(F)c(C(=O)c2c[nH]c3ncc(-c4cnc(N5CCN(C(=O)CN6CCC(c7ccc(NC8CCC(=O)NC8=O)c(F)c7)CC6)CC5)nc4)cc23)c1F` (stereo not shown) [Example 29, 5-[2-[4-[2-[4-[4-[(2,6-dioxo-3-piperidyl)amino]-3-fluoro-phenyl]-1-piperidyl]acetyl]piperazin-1-yl]pyrimidin-5-yl]-3-[3-[[ethyl(methyl)sulfamoyl]amino]-2,6-difluoro-benzoyl]-1H-pyrrolo[2,3-b]pyridine], for which it took 2.76 nM to reach half-maximal degradation (DC50) and the Emax came out at 7.67%.
As for `CCC(C)S(=O)(=O)Nc1ccc(F)c(C(=O)c2c[nH]c3ncc(-c4ccc(N5CCN(C(=O)CN6CCC(c7ccc(OC8CCC(=O)NC8=O)cc7)CC6)CC5)nc4)cc23)c1F` (stereo not shown) [Example A28, N-[3-[5-[6-[4-[2-[4-[4-(2,6-Dioxopiperidin-3-yl)oxyphenyl]piperidin-1-yl]acetyl]piperazin-1-yl]pyridin-3-yl]-1H-pyrrolo[2,3-b]pyridine-3-carbonyl]-2,4-difluorophenyl]butane-2-sulfonamide], the DC50 was found to be 12 nM and the Emax is 14%.
Take `CCN(C)S(=O)(=O)Nc1ccc(F)c(C(=O)c2c[nH]c3ncc(-c4ccc(N5CCC(N(C)C(=O)CN6CCC(c7ccc(NC8CCC(=O)NC8=O)cn7)CC6)CC5)nc4)cc23)c1F` (stereo not shown) [Example A95, 2-[4-[5-[(2,6-Dioxopiperidin-3-yl)amino]pyridin-2-yl]piperidin-1-yl]-N-[1-[5-[3-[3-[[ethyl(methyl)sulfamoyl]amino]-2,6-difluorobenzoyl]-1H-pyrrolo[2,3-b]pyridin-5-yl]pyridin-2-yl]piperidin-4-yl]-N-methylacetamide;hydrochloride]: half-maximal degradation (DC50) was put at 11 nM and the Emax turned out to be 7%.
The corresponding values for `CCN(C)S(=O)(=O)Nc1ccc(F)c(C(=O)c2c[nH]c3ncc(-c4cnc(N5CCC(N(C)CC(=O)N6CCC(c7ccc(NC8CCC(=O)NC8=O)cn7)CC6)CC5)nc4)cc23)c1F` (stereo not shown) [Example A90, 5-[2-[4-[[2-[4-[5-[(2,6-Dioxopiperidin-3-yl)amino]pyridin-2-yl]piperidin-1-yl]-2-oxoethyl]-methylamino]piperidin-1-yl]pyrimidin-5-yl]-3-[3-[[ethyl(methyl)sulfamoyl]amino]-2,6-difluorobenzoyl]-1H-pyrrolo[2,3-b]pyridine;formic acid] are 31 nM and 20%.
For `CCN(C)S(=O)(=O)Nc1ccc(F)c(C(=O)c2c[nH]c3ncc(-c4cnc(N5CCN(C(=O)CC6CCN(c7ccc(NC8CCC(=O)NC8=O)cc7)CC6)CC5)nc4)cc23)c1F` (stereo not shown) [Example 31, 5-[2-[4-[2-[1-[4-[(2,6-dioxo-3-piperidyl)amino]phenyl]-4-piperidyl]acetyl]piperazin-1-yl]pyrimidin-5-yl]-3-[3-[[ethyl(methyl)sulfamoyl]amino]-2,6-difluoro-benzoyl]-1H-pyrrolo[2,3-b]pyridine], in that order: 30 nM and 21.2%.
For `CCN(C)S(=O)(=O)Nc1ccc(F)c(C(=O)c2c[nH]c3ncc(-c4cnc(N5CCN(C(=O)CN6CC[C@H](c7ccc(NC8CCC(=O)NC8=O)cc7)C(F)(F)C6)CC5)nc4)cc23)c1F` (stereo partly drawn) [Example 55, 5-[2-[4-[2-[(4R)-4-[4-[(2,6-dioxo-3-piperidyl)amino]phenyl]-3,3-difluoro-1-piperidyl]acetyl]piperazin-1-yl]pyrimidin-5-yl]-3-[3-[[ethyl(methyl)sulfamoyl]amino]-2,6-difluoro-benzoyl]-1H-pyrrolo[2,3-b]pyridine], the half-maximal degradation concentration (DC50) stood at 4.61 nM and the “HiBit 24 h Emax” value amounted to 6.57%.

The record behind these values is patent publication US12559492B2, “BRAF degraders” (C4 Therapeutics, Inc., priority 2020, dated 2026).
